Laboratory results from article PMC5384453, “A multi-functional PEGylated gold(III) compound: potent anti-cancer properties and self-assembly into nanostructures for drug co-delivery” (Chemical Science, 2016).

How the values were obtained:
[1] = test system: HCT116 cells; assay: FITC-Annexin V staining and flow cytometry; format: cell-based, human; conditions: HCT116, 2 μM, 24 h
Procedure: (§1) The induction of apoptosis of HCT116 and NCM460 cells by 1 was further studied using FITC-Annexin V staining. […] The quantity of apoptotic cells stained by FITC-Annexin V after treatment with 1 or Au1a was also investigated by flow cytometry. […]
(§2) with gold(III) complexes and FITC-annexin V staining. HCT116 (1×10 5 cells) and […]
(§3) annexin-binding buffer solution. The cells were then incubated with FITC-annexin V […]
(§4) at room temperature in dark for 15 min. The solution was then removed, and the cells were washed with annexin-binding buffer solution. Fluorescence images were then […]
(§5) in ice and analyzed by flow cytometry immediately. […]
(§6) staining and flow cytometry.

[2] = test system: NCM460 cells; assay: FITC-Annexin V staining and flow cytometry; format: cell-based, human; conditions: NCM460, 2 μM, 24 h
Procedure: as §1, §2, §3, §4, §5, §6

[3] = test system: HCT116 cells; assay: Co-culture model of HCT116 and NCM460, Caspase-3/7 Green flow cytometry; format: cell-based, human; conditions: 24 h; for population percentage of apoptotic cells (Caspase-3/7 Green, corrected): HCT116 in co-culture with CMF2HC-stained NCM460, 2 μM
Procedure: (§7) This co-culture model treated with 1 for 24 h had 25.04 and 5.01% (Q2 and Q3 regions of Fig. S21a ^†; corrected) of HCT116 and NCM460 cells, respectively, undergoing apoptosis as determined by Caspase-3/7 Green Reagent staining and flow cytometric analysis (Fig. S21 ^†). This confirms the preferential induction of apoptosis by 1 of HCT116 cells over NCM460 cells in the co-culture model, regardless of the effect, if any, of the blue emissive CMF2HC dye.
(§8) atmosphere of 5% CO2. After reaching 80% confluency, the culture medium was
(§9) of 5% CO2 for 45 min. The solution was then removed. The stained NCM460 cells
(§10) the procedure described above.
(§11) right fore of BALB/c nude mice. When the tumor volume reached 70 mm3 after […]

[4] = test system: NCM460 cells; assay: as above; format: cell-based, human; conditions: 24 h; for population percentage of apoptotic cells (Caspase-3/7 Green, corrected): CMF2HC-stained NCM460 in co-culture with HCT116, 2 μM
Procedure: as §7, §8, §9, §10, §11

[5] = test system: HCT116 xenografts; assay: In vivo inhibition of tumor growth in nude mice bearing HCT116 xenograft; conditions: for reduction of tumor volume / reduction of tumor weight: n = 8
Description: The anti-tumor experiments using mice were approved by the animal ethics committees of Jinan University and The University of Hong Kong.
Significant pulmonary hemorrhage in the alveoli and a thickening of alveolar walls were found. Also, apoptotic hepatocytes and swollen renal epithelial cells were found, leading to subsequent shrinkage of kidney tubules. […] The lower systemic toxicity of 1 can be explained by the lower accumulation of 1 in the organs of mice treated at its effective dosage, as compared to that of 3 and Au1a (Fig. S23 ^†). […] This can be attributable to the nanostructures of 1, which may lead to in vivo tumor accumulation by the EPR effect.[55] […]
atmosphere of 5% CO2. […]
as §11
every 2 days for 24 days. The control group received equal volume of PBS only.
During the treatment period, the tumor volume and body weight of the nude mice were measured per two days. The tumor volume was calculated by the equation:
Volume (mm3) = l×w2/2, where l and w were the length and width of the tumor. At the end of the treatment, the nude mice were sacrificed and the tumor weight was […]
H&E staining and immunohistochemical (IHC) analysis of mice tissues. For histological and immunohistochemical analysis, the tissues were fixed with 3.7% formaldehyde, embedded with paraffin and sectioned. Subsequently, the tissues were stained with hematoxylin and eosin for histological observation under an optical microscope (magnification: 10×). The expression of p53, Ki67, VEGFR2 and TUNEL was determined by IHC methods as reported previously. S7
Hematological analysis of nude mice bearing HCT116 xenograft. The blood samples of mice without bearing HCT116 xenograft and xenograft-bearing mice treated with 1, 3 and PBS control were collected. The plasma was obtained by centrifuging the blood sample with speed at 3000 rpm. The plasma was then subjected to hematological analysis to determine biochemical indexes of alanine aminotransferase (ALT), asparatate aminotransferase (AST), globulin (GLB), blood urea nitrogen (BUN), uric acid (UA), creatinine (CREA), lactate dehydrogenase (LDH) and creatine kinase (CK) in blood of the mice. […]

[6] = Dynamic light scattering of nanostructures in PBS; format: physicochemical
Procedure: On the other hand, the almost neutral zeta potentials of the nanostructures of 1 and 2 validated the presence of PEG pendant in the shell of the nanostructures. The identity of gold species in the core of the nanostructures was supported by the good contrast of the core in the TEM images (Fig. 1c and S3a ^†) and energy-dispersive X-ray (EDX) spectra (Fig. 1f).
The gold content in NC1 was confirmed by EDX (Fig. 1g). […]
fetal bovine serum, ʟ-glutamine (2 mM) and penicillin/streptomycin (100 U/mL). […]
Physical measurements and instrumentation. 1H NMR spectra were recorded with a Bruker AVANCE 400 (400 MHz) or DPX-300 (300 MHz) Fourier transform NMR spectrometer at ambient temperature with tetramethylsilane (Me4Si) as an internal reference. MALDI-TOF mass spectra were recorded on a ABI4800 MALDI
TOF/TOF™ Analyzer using α-cyano-4-hydroxycinnamic acid with sodium trifluoroacetate as the matrix. Positive ion electrospray (ESI) mass spectra and ultra-performance liquid chromatography coupled quadrupole-time-of-flight mass spectrometry (UPLC-QTOF-MS) were recorded on a Waters Micromass Q-Tof
Premier quadrupole time-of-flight tandem mass spectrometer. Inductively coupled plasma mass spectra (ICP-MS) were recorded on Agilent 7500a inductively coupled plasma mass spectrometer (Agilent Technologies, CA, U.S.A.). […]

[7] = Hydrolysis in aqueous buffer solutions by 1H NMR; format: physicochemical; conditions: 24 h, 37 °C; pH 4 (1), pH 4 or 7.4 (2)
[8] = 4 mg kg^–1, intravenous injection every two days for 24 days
[9] = 2 mg kg^–1, intravenous injection every two days for 24 days

Compound | percent of apoptotic cells (FITC-Annexin V, background corrected) [1] | percent of apoptotic cells (FITC-Annexin V, background corrected) [2] | population percentage of apoptotic cells (Caspase-3/7 Green, corrected) [3] | population percentage of apoptotic cells (Caspase-3/7 Green, corrected) [4] | reduction of tumor volume [5, 8] | reduction of tumor weight [5, 8] | Intensity-averaged signals from dynamic light scattering (hydrodynamic diameter) [6] | change in 1H NMR spectra after incubation in buffer [7] | cells undergoing apoptosis (Caspase-3/7 Green, corrected) ([3]; co-culture with HCT116 pre-treated with CMF2HC dye, HCT116 cells) | cells undergoing apoptosis (Caspase-3/7 Green, corrected) ([4]; co-culture with HCT116 pre-treated with CMF2HC dye, NCM460 cells) | reduction of tumor volume [5, 9] | reduction of tumor weight [5, 9] | nuclear atypia and mitosis in tumor sections (immunohistochemical analysis) ([5]; 4 mg kg^–1 i.v., 24 days)
C1=Cc2nc1c(-c1ccccc1)c1ccc([n-]1)c(-c1ccccc1)c1nc(c(-c3ccccc3)c3ccc([n-]3)c2-c2ccccc2)C=C1.[Au+3].[Cl-] [Au1a, [Au(TPP)]Cl, reference compound] | 39.6% | 39.3% | 54.6% | 29.3% |  |  |  |  |  |  |  |  | 
COC(=O)c1ccc(C2=C3C=CC(=N3)C(c3ccccc3)=c3ccc4[n]3[Au+][n]3c(ccc32)C(c2ccccc2)=C2C=CC(=N2)C=4c2ccccc2)cc1.[Cl-] [Compound 3, [Au(TPP–COOCH3)]^+] |  |  |  |  | 56% | 49% |  |  |  |  |  |  | 
[Au(TPP–CONH–PEG5000–OCH3)]Cl [Compound 2] |  |  |  |  |  |  | 177.1 ± 81.2 nm | no observable change in the NMR spectra |  |  |  |  | 
[Au(TPP–COO–PEG5000–OCH3)]Cl [Compound 1] | 22.5% | 2.4% | 25.3% | 4.1% | 58% | 53% | 120.8 ± 7.2 nm | disappearance of peaks from protons of –COOCH 2CH 2– | 25.04% | 5.01% | 41% | 35% | Effective elimination of nuclear atypia and mitosis were observed
